Earlier results on 15 compounds are cited in patent publication US9669099B2, “Pine bark extract and black pepper essential oil with anti-inflammatory and anti-arthritic action and method of preparing same” (priority 2015, dated 2017).

Data set [1] has as its system leukotriene production. The note with it: leukotriene as a mediator of inflammation.
The test system of data set [2] is NF-kB activation.
Data set [3] deals with neutrophil migration.
Data set [4] concerns TNF-a and IL-1b.
Data set [5] relates to kinin B1 receptors.
In data set [6] the test system is TNF-α (Tumor Necrosis Factor alpha). The note with it: fibroblast cultures, all animals assessed.

Take `C=CC(C)(O)CCC=C(C)C` (racemic) [(±)-linalool]: in data set [1], the “inhibitor of leukotriene production” value is given as “effective as an inhibitor”.

Regarding `CC1=C[C@@H](O)[C@@H]2C[C@H]1C2(C)C` (relative stereo) [(+)-cis-verbenol], in data set [1], the “inhibitor of leukotriene production” value is “effective as an inhibitor”. Regarding `C=C(C)C1CC=C(C)CC1` (single isomer, unassigned; (+)) [(+)-limonene], the “inhibitor of leukotriene production” value in data set [1] was “effective as an inhibitor”. In the case of `CC1CCC(C(C)C)C(O)C1` (single isomer, unassigned; (-)) [(−)-menthol], the “inhibitor of leukotriene production” value in data set [1] was “effective as an inhibitor”. For the compound `CC1=CC[C@@H]2C[C@H]1C2(C)C` [(+)-α-pinene], in data set [1], the “inhibitor of leukotriene production” value is “effective as an inhibitor”. Regarding `CC1=CC[C@H]2C[C@@H]1C2(C)C` [(−)-α-pinene], the “inhibitor of leukotriene production” value in data set [1] is “effective as an inhibitor”. Consider `C/C1=C\CC/C(C)=C/CC(C)(C)/C=C/C1` [Alpha-humulene], for which the “inhibition of LPS-induced NF-kB activation” value in data set [2] is listed as “inhibit”. In addition, in data set [3], the “inhibition of LPS-induced neutrophil migration” value is reported as “inhibit”. The “prevention of production of proinflammatory cytokines TNF-a and IL-1b” value in data set [4] was “ability to prevent”. The “prevention of in vivo up-regulation of kinin B1 receptors” value in data set [5] is listed as “ability to prevent”. Consider `C=C1CC/C=C(\C)CC[C@@H]2[C@@H]1CC2(C)C` [Beta-caryophyllene], for which the “inhibition of LPS-induced NF-kB activation” value in data set [2] is reported as “inhibit”. Moreover, in data set [3], the “inhibition of LPS-induced neutrophil migration” value is reported as “inhibit”. As to `CC(C)=CCCC(C)=CC=O` [citral], the “inhibitor of leukotriene production” value in data set [1] is reported as “effective as an inhibitor”.

As to `CC(C)=CCC/C(C)=C/CO` [geraniol], in data set [1], the “inhibitor of leukotriene production” value was “effective as an inhibitor”. As for `C=C(C)[C@H]1CC=C(C)CC1` [limonene], in data set [6], the “inhibition of TNF-α” value is reported as “inhibition of TNF-α”. With `CC1=CCCC(C)(C)C1C=O` (stereo not drawn) [α-cyclocitral], the “inhibitor of leukotriene production” value in data set [1] was “effective as an inhibitor”. In the case of `CC1=CC=C(C(C)C)CC1` [α-terpinene], in data set [1], the “inhibitor of leukotriene production” value is “effective as an inhibitor”.

Turning to `C=CC(=C)CCC=C(C)C` [β-myrcene], the “inhibitor of leukotriene production” value in data set [1] was “effective as an inhibitor”. Turning to `CC1=CCC(C(C)C)=CC1` [γ-terpinene], in data set [1], the “inhibitor of leukotriene production” value is given as “effective as an inhibitor”.
